# Assay results from patent US9499550B2 (BRISTOL-MYERS SQUIBB COMPANY, priority 2012, dated 2016).
# Experiments:
# [1] = test system: HCV genotype 1a (H77 strain) replicon in HUH-7 cells; test: HCV replicon luciferase reporter assay, genotype 1a; assay type: cell-based; conditions: Hepatitis C virus, Huh-7, 72 h, HCV genotype 1a replicon luciferase, 3 days incubation, read-out: LE_1a (EC50, range)
# How it was run: (§1)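 Replicon inhibition for both genotypes was measured as Renilla luciferase signal (EnduRen, 7.5 μM final, 2 h) after 3-day, 37° C exposure of replicon-bearing HUH-7 cells in 4% FCS DMEM, 0.5% DMSO. The 1b construct carries S1179I; the 1a H77 construct carries P1496L and S2204I. Twenty-point, 3-fold dilutions were fitted four-parametrically for EC50, and CC50 was taken from multiplexed Cell Titer-Blue.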
# [2] = test system: HCV genotype 1b (Con1) replicon in HUH-7 cells; test: HCV replicon luciferase reporter assay, genotype 1b; assay type: cell-based; conditions: Hepatitis C virus, Huh-7, 72 h, HCV genotype 1b replicon luciferase, 3 days incubation, read-out: LE_1b (EC50, range)
# How it was run: as §1
SMILES,EC50 [1] [nM],EC50 [2] [nM]
"CCCOc1cnc(O[C@@H]2C[C@H]3C(=O)N[C@]4(C(=O)NS(=O)(=O)C5CC5)C[C@H]4/C=C\CC[C@@H](C)C[C@@H](C)[C@H](NC(=O)NC(C)(C)C(F)(F)F)C(=O)N3C2)c2ccccc12 [Compound 5099, (2R,6S,7R,9R,13aS,14aR,16aS,Z)—N-(cyclopropylsulfonyl)-7,9-dimethyl-5,16-dioxo-2-((4-propoxyisoquinolin-1-yl)oxy)-6-(3-(1,1,1-trifluoro-2-methylpropan-2-yl)ureido)-1,2,3,5,6,7,8,9,10,11,13a,14,14a,15,16,16a-hexadecahydrocyclopropa[e]pyrrolo[1,2-a][1,4]diazacyclopentadecine-14a-carboxamide]",< 5.46,< 5.46
"[2H]C([2H])([2H])Oc1cnc(O[C@@H]2C[C@H]3C(=O)N[C@]4(C(=O)NS(=O)(=O)C5(C)CC5)C[C@H]4/C=C\CC[C@H](C)C[C@@H](C)[C@H](NC(=O)OC(C)(C)C)C(=O)N3C2)c2ccccc12 [Compound 5100, tert-butyl ((2R,6S,7R,9S,13aS,14aR,16aS,Z)-7,9-dimethyl-14a-(((1-methylcyclopropyl)sulfonyl)carbamoyl)-5,16-dioxo-2-((4-(trideuteromethoxy)isoquinolin-1-yl)oxy)-1,2,3,5,6,7,8,9,10,11,13a,14,14a,15,16,16a-hexadecahydrocyclopropa[e]pyrrolo[1,2-a][1,4]diazacyclopentadecin-6-yl)carbamate]",< 5.46,< 5.46
"[2H]C([2H])([2H])Oc1cnc(O[C@@H]2C[C@H]3C(=O)N[C@]4(C(=O)NS(=O)(=O)C5(C)CC5)C[C@H]4/C=C\CC[C@H](C)C[C@@H](C)[C@H](NC(=O)OC(C)(C)C(F)(F)F)C(=O)N3C2)c2ccccc12 [Compound 5102, 1,1,1-trifluoro-2-methylpropan-2-yl((2R,6S,7R,9S,13aS,14aR,16aS,Z)-7,9-dimethyl-14a-(((1-methylcyclopropyl)sulfonyl)carbamoyl)-5,16-dioxo-2-((4-(trideuteromethoxy)isoquinolin-1-yl)oxy)-1,2,3,5,6,7,8,9,10,11,13a,14,14a,15,16,16a-hexadecahydrocyclopropa[e]pyrrolo[1,2-a][1,4]diazacyclopentadecin-6-yl)carbamate]",< 5.46,< 5.46
"[2H]C([2H])([2H])Oc1cnc(O[C@@H]2C[C@H]3C(=O)N[C@]4(C(=O)NS(=O)(=O)C5(C)CC5)C[C@H]4/C=C\CC[C@@H](C)C[C@@H](C)[C@H](NC(=O)OC(C)(C)C(F)(F)F)C(=O)N3C2)c2ccccc12 [Compound 5103, 1,1,1-trifluoro-2-methylpropan-2-yl((2R,6S,7R,9R,13aS,14aR,16aS,Z)-7,9-dimethyl-14a-(((1-methylcyclopropyl)sulfonyl)carbamoyl)-5,16-dioxo-2-((4-(trideuteromethoxy)isoquinolin-1-yl)oxy)-1,2,3,5,6,7,8,9,10,11,13a,14,14a,15,16,16a-hexadecahydrocyclopropa[e]pyrrolo[1,2-a][1,4]diazacyclopentadecin-6-yl)carbamate]",< 5.46,< 5.46
"[2H]C([2H])([2H])Oc1cnc(O[C@@H]2C[C@H]3C(=O)N[C@]4(C(=O)NS(=O)(=O)C5(C)CC5)C[C@H]4/C=C\CC[C@H](C)C[C@@H](C)[C@H](NC(=O)OC(C([2H])([2H])[2H])(C([2H])([2H])[2H])C(F)(F)F)C(=O)N3C2)c2ccccc12 [Compound 5104, 1,1,1,3,3,3-hexadeutero-2-(trifluoromethyl)propan-2-yl((2R,6S,7R,9S,13aS,14aR,16aS,Z)-7,9-dimethyl-14a-(((1-methylcyclopropyl)sulfonyl)carbamoyl)-5,16-dioxo-2-((4-(trideuteromethoxy)isoquinolin-1-yl)oxy)-1,2,3,5,6,7,8,9,10,11,13a,14,14a,15,16,16a-hexadecahydrocyclopropa[e]pyrrolo[1,2-a][1,4]diazacyclopentadecin-6-yl)carbamate]",< 5.46,< 5.46
"[2H]C([2H])([2H])Oc1cnc(O[C@@H]2C[C@H]3C(=O)N[C@]4(C(=O)NS(=O)(=O)C5(C)CC5)C[C@H]4/C=C\CC[C@@H](C)C[C@@H](C)[C@H](NC(=O)OC(C([2H])([2H])[2H])(C([2H])([2H])[2H])C(F)(F)F)C(=O)N3C2)c2ccccc12 [Compound 5105, 1,1,1,3,3,3-hexadeutero-2-(trifluoromethyl)propan-2-yl((2R,6S,7R,9R,13aS,14aR,16aS,Z)-7,9-dimethyl-14a-(((1-methylcyclopropyl)sulfonyl)carbamoyl)-5,16-dioxo-2-((4-(trideuteromethoxy)isoquinolin-1-yl)oxy)-1,2,3,5,6,7,8,9,10,11,13a,14,14a,15,16,16a-hexadecahydrocyclopropa[e]pyrrolo[1,2-a][1,4]diazacyclopentadecin-6-yl)carbamate]",< 5.46,< 5.46
"[2H]C([2H])([2H])Oc1cnc(O[C@@H]2C[C@H]3C(=O)N[C@]4(C(=O)NS(=O)(=O)C5(C)CC5)C[C@H]4/C=C\CC[C@H](C)C[C@@H](C)[C@H](NC(=O)NC(C)(C)C)C(=O)N3C2)c2ccccc12 [Compound 5106, (2R,6S,7R,9S,13aS,14aR,16aS,Z)-6-(3-(tert-butyl)ureido)-7,9-dimethyl-N-((1-methylcyclopropyl)sulfonyl)-5,16-dioxo-2-((4-(trideuteromethoxy)isoquinolin-1-yl)oxy)-1,2,3,5,6,7,8,9,10,11,13a,14,14a,15,16,16a-hexadecahydrocyclopropa[e]pyrrolo[1,2-a][1,4]diazacyclopentadecine-14a-carboxamide]",< 5.46,< 5.46
"[2H]C([2H])([2H])Oc1cnc(O[C@@H]2C[C@H]3C(=O)N[C@]4(C(=O)NS(=O)(=O)C5(C)CC5)C[C@H]4/C=C\CC[C@@H](C)C[C@@H](C)[C@H](NC(=O)NC(C)(C)C)C(=O)N3C2)c2ccccc12 [Compound 5107, (2R,6S,7R,9R,13aS,14aR,16aS,Z)-6-(3-(tert-butyl)ureido)-7,9-dimethyl-N-((1-methylcyclopropyl)sulfonyl)-5,16-dioxo-2-((4-(trideuteromethoxy)isoquinolin-1-yl)oxy)-1,2,3,5,6,7,8,9,10,11,13a,14,14a,15,16,16a-hexadecahydrocyclopropa[e]pyrrolo[1,2-a][1,4]diazacyclopentadecine-14a-carboxamide]",< 5.46,< 5.46
"[2H]C([2H])([2H])Oc1cnc(O[C@@H]2C[C@H]3C(=O)N[C@]4(C(=O)NS(=O)(=O)C5(C)CC5)C[C@H]4/C=C\CC[C@H](C)C[C@@H](C)[C@H](NC(=O)OC(C)(C)C(C)(F)F)C(=O)N3C2)c2ccccc12 [Compound 5108, 3,3-difluoro-2-methylbutan-2-yl((2R,6S,7R,9S,13aS,14aR,16aS,Z)-7,9-dimethyl-14a-(((1-methylcyclopropyl)sulfonyl)carbamoyl)-5,16-dioxo-2-((4-(trideuteromethoxy)isoquinolin-1-yl)oxy)-1,2,3,5,6,7,8,9,10,11,13a,14,14a,15,16,16a-hexadecahydrocyclopropa[e]pyrrolo[1,2-a][1,4]diazacyclopentadecin-6-yl)carbamate]",< 5.46,< 5.46
"[2H]C([2H])([2H])Oc1cnc(O[C@@H]2C[C@H]3C(=O)N[C@]4(C(=O)NS(=O)(=O)C5(C)CC5)C[C@H]4/C=C\CC[C@@H](C)C[C@@H](C)[C@H](NC(=O)OC(C)(C)C(C)(F)F)C(=O)N3C2)c2ccccc12 [Compound 5109, 3,3-difluoro-2-methylbutan-2-yl((2R,6S,7R,9R,13aS,14aR,16aS,Z)-7,9-dimethyl-14a-(((1-methylcyclopropyl)sulfonyl)carbamoyl)-5,16-dioxo-2-((4-(trideuteromethoxy)isoquinolin-1-yl)oxy)-1,2,3,5,6,7,8,9,10,11,13a,14,14a,15,16,16a-hexadecahydrocyclopropa[e]pyrrolo[1,2-a][1,4]diazacyclopentadecin-6-yl)carbamate]",< 5.46,< 5.46
"[2H]C([2H])([2H])Oc1cnc(O[C@@H]2C[C@H]3C(=O)N[C@]4(C(=O)NS(=O)(=O)C5(C)CC5)C[C@H]4CCCC[C@@H](C)C[C@@H](C)[C@H](NC(=O)OC(C)(C)C(F)(F)F)C(=O)N3C2)c2ccccc12 [Compound 5111, 1,1,1-trifluoro-2-methylpropan-2-yl((2R,6S,7R,9R,13aR,14aR,16aS)-7,9-dimethyl-14a-(((1-methylcyclopropyl)sulfonyl)carbamoyl)-5,16-dioxo-2-((4-(trideuteromethoxy)isoquinolin-1-yl)oxy)octadecahydrocyclopropa[e]pyrrolo[1,2-a][1,4]diazacyclopentadecin-6-yl)carbamate]",< 5.46,< 5.46
"COc1cnc(O[C@@H]2C[C@H]3C(=O)N[C@]4(C(=O)NS(=O)(=O)C5(CF)CC5)C[C@H]4CCCC[C@@H](C)C[C@@H](C)[C@H](NC(=O)OC(C)(C)C)C(=O)N3C2)c2ccccc12 [Compound 5115, tert-butyl ((2R,6S,7R,9R,13aR,14aR,16aS)-14a-(((1-(fluoromethyl)cyclopropyl)sulfonyl)carbamoyl)-2-((4-methoxyisoquinolin-1-yl)oxy)-7,9-dimethyl-5,16-dioxooctadecahydrocyclopropa[e]pyrrolo[1,2-a][1,4]diazacyclopentadecin-6-yl)carbamate]",< 5.46,< 5.46
"COc1cnc(O[C@@H]2C[C@H]3C(=O)N[C@]4(C(=O)NS(=O)(=O)C5(CF)CC5)C[C@H]4CCCC[C@H](C)C[C@@H](C)[C@H](NC(=O)OC(C)(C)C(F)(F)F)C(=O)N3C2)c2ccccc12 [Compound 5116, 1,1,1-trifluoro-2-methylpropan-2-yl((2R,6S,7R,9S,13aR,14aR,16aS)-14a-(((1-(fluoromethyl)cyclopropyl)sulfonyl)carbamoyl)-2-((4-methoxyisoquinolin-1-yl)oxy)-7,9-dimethyl-5,16-dioxooctadecahydrocyclopropa[e]pyrrolo[1,2-a][1,4]diazacyclopentadecin-6-yl)carbamate]",> 87.4,4.82 to 103
